The supplement of paper PMC13386468

Columns and labels:
Conditions in all cases: assay detail: Kinobeads competition in P. falciparum blood-stage lysate
[1] = biological target: UniProt C0H4Y6; assay: IC50 for competition of protein binding to Kinobeads
[2] = biological target: UniProt Q8IAU1; assay: as above
[3] = biological target: UniProt Q8IAR7; assay: as above
[4] = biological target: UniProt C0H4U0; assay: as above
[5] = biological target: UniProt Q8IJP8; assay: as above
[6] = biological target: UniProt Q8I3T4; assay: as above
[7] = biological target: UniProt Q8IL13; assay: as above
[8] = biological target: UniProt Q8IDG3; assay: as above
[9] = biological target: UniProt Q8IIV8; assay: as above
[10] = biological target: UniProt Q8IE85; assay: as above
[11] = biological target: UniProt Q8IJN7; assay: as above
Chain of UniProt Q8IJN7 (Q8IJN7 whole entry): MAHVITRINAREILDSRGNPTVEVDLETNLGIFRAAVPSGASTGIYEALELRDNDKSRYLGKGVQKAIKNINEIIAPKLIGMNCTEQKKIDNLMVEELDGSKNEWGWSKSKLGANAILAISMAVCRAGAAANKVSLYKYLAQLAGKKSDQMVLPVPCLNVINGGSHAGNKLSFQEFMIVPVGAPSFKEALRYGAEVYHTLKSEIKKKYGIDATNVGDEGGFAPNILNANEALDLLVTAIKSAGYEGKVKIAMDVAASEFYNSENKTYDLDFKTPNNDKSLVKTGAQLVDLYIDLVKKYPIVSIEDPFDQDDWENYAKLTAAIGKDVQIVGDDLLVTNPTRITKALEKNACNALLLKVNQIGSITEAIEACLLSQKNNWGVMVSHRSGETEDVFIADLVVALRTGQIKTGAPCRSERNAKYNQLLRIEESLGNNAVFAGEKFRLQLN

[12] = biological target: UniProt Q8I574; assay: as above
[13] = biological target: UniProt Q8IDH5; assay: as above
[14] = biological target: UniProt C6KTA4; assay: as above
[15] = biological target: UniProt C0H5J5; assay: as above
[16] = biological target: UniProt Q8IBP0; assay: as above
[17] = biological target: UniProt O77396; assay: as above
[18] = biological target: UniProt C0H4L1; assay: as above
[19] = biological target: UniProt Q8IJE1; assay: as above
[20] = biological target: UniProt Q8I442; assay: apparent dissociation constant (Kd app) from Kinobeads competition
[21] = biological target: UniProt C6KSZ6; assay: as above
[22] = biological target: UniProt Q9U0K8; assay: as above
[23] = biological target: UniProt Q8IKQ9; assay: as above
[24] = biological target: UniProt Q8IAZ3; assay: as above
[25] = biological target: UniProt Q8IIW6; assay: as above
[26] = biological target: A0A144A0U7; assay: as above
[27] = biological target: UniProt Q8I535; assay: as above
[28] = biological target: UniProt Q8I5E3; assay: as above
[29] = biological target: UniProt Q7KQK0; assay: as above
[30] = biological target: UniProt Q8IAM4; assay: as above
[31] = biological target: UniProt Q8I5D4; assay: as above
[32] = biological target: UniProt Q8IJR8; assay: as above
[33] = biological target: UniProt C6KSQ1; assay: as above
[34] = biological target: UniProt C0H4R8; assay: as above
[35] = biological target: UniProt O77344; assay: as above
[36] = biological target: UniProt Q8I5H9; assay: as above
[37] = biological target: UniProt Q8IEL1; assay: as above
[38] = biological target: UniProt Q8IE41; assay: as above
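For IC50 in this document: native unpurified kinases from lysate captured on beads bearing immobilized kinase inhibitors, with bead-bound kinases quantified by mass spectrometry across compound doses.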

## O=c1[nH]c2ccc(Cl)cc2c(NC2CN3CCC2CC3)c1-c1nc2ccccc2[nH]1 (stereo not drawn) [CHIR-124]
[1]
  IC50: > 20 µM
[2]
  IC50: > 20 µM
[3]
  IC50: > 20 µM
[4]
  IC50: > 20 µM
[5]
  IC50: > 20 µM
[6]
  IC50: > 20 µM
[7]
  IC50: > 20 µM
[8]
  IC50: > 20 µM
[9]
  IC50: > 20 µM
[10]
  IC50: > 20 µM
[11]
  IC50: > 20 µM
[12]
  IC50: > 20 µM
[13]
  IC50: > 20 µM
[14]
  IC50: > 20 µM
[15]
  IC50: > 20 µM
[16]
  IC50: > 20 µM
[17]
  IC50: > 20 µM
[18]
  IC50: > 20 µM
[19]
  IC50: > 20 µM
[20]
  Kd: 7.1 µM
[21]
  Kd: 1.4 µM
[22]
  Kd: 4.29 µM
[23]
  Kd: 15.3 µM
[24]
  Kd: 9.02 µM
[25]
  Kd: 0.181 µM
[26]
  Kd: 7.53 µM
[27]
  Kd: 0.0455 µM
[28]
  Kd: 7.57 µM
[29]
  Kd: 0.621 µM
[30]
  Kd: 7.66 µM
[31]
  Kd: 5.65 µM
[32]
  Kd: 0.314 µM
[33]
  Kd: 0.168 µM
[34]
  Kd: 4.84 µM
[35]
  Kd: 1.28 µM
[36]
  Kd: 10.3 µM
[37]
  Kd: 1.9 µM
[38]
  Kd: 0.239 µM
